According to US20240335381A1, “Transdermal Microemulsion Delivery Systems for Alcohol-Soluble Species Including Nonderivatized Hormones” (Quicksilver Scientific, Inc., priority 2021, published 2024):
≈ marks a conversion by molar mass, not a printed value. Read-outs that look alike come from different tables or passages of the source.

Tests used:
[1] = Solubility in ethanol and in MCT oil; format: physicochemical
Text: An alcohol-soluble species is a species that is insoluble in water and has a greater solubility in ethanol than in medium chain triglyceride (MCT) oils. […] Alcohol-soluble species are preferably pharmacologically active, more preferably are a drug or a supplement, and neither include nor are water. Thus, liquids and solids may exist that technically are soluble in alcohol, but because they also are soluble in water or more or equivalently soluble in MCT oils than in ethanol are not “alcohol-soluble species”.
Solubilized means that the alcohol-soluble species to be delivered is in the solution of the droplet. […] Thus, if either average particle diameters greater than 200 nm or precipitated crystals visible to the naked eye form, the alcohol-soluble species is not solubilized in the solution of the droplet. If an alcohol-soluble species is not solubilized in the solution, it is insoluble in the solution. In many respects, solubility may be thought of as a concentration dependent continuum. For example, the following descriptive terms may be used to express solubility of a solute in a solvent (grams solid/mL of solvent) at 25 degrees Celsius: […]

[2] = cited from earlier work

Row | Structure (SMILES) | solubility level in MCT oil ([1]; MCT oil) | solubility level in ethanol ([1]; ethanol) | solubility ([1]; ethanol, organic solvent or mixture, read-out: solubility in ethanol) | solubility ([1]; medium chain triglyceride (MCT) oil, oil or lipid, MCT oil, read-out: solubility in MCT oil) | time within which the remainder is metabolized from the blood ([2]; after introduction) | share metabolized from the blood ([2]; within the first hour of introduction)
1 | C[C@]12CC[C@H](O)CC1=CC[C@@H]1[C@@H]2CC[C@]2(C)C(=O)CC[C@@H]12 [DHEA, dehydroepiandrosterone (3-beta-hydroxyandrosteron-5-en-17-one)] | sparingly soluble | freely soluble | ~150 mg/mL (≈ 520 mM) | ~10 mg/mL (≈ 34.7 mM) |  | 
2 | C[C@]12CC[C@H]3[C@@H](CCC4=CC(=O)CC[C@@]43C)[C@@H]1CC[C@@H]2O [testosterone] |  |  |  |  | three | about 90%
